Source: patent US20170368134A1, “PROTEASOME INHIBITORS FOR TREATING A DISORDER RELATED TO AN ACCUMULATION OF NON-DEGRADED ABNORMAL PROTEIN OR A CANCER” (UNIVERSITÉ D'AIX-MARSEILLE, priority 2015, published 2017)
Peptide text beside a SMILES is read from it. * marks the point of attachment. Cbz = O=C(OCc1ccccc1)*

How the values were obtained:
[1] = Tolerability of intramuscular MG132 in Lmna G609G/G609G mice; type: in vivo, mouse; settings: 1 or 10 μg/Kg intramuscular
Description: (§1) Knock-in mouse model (Lmna^G609G/G609G) carrying the c.1827C>T (p.Gly609Gly) mutation in the endogenous Lmna gene, corresponding to the human HGPS mutation c.1824C>T (p.Gly609Gly) have been described previously (31). MG132 (1 or 10 μg/Kg body weight) was injected under isoflurane anesthesia into the right gastrocnemius muscle of […] homozygous knock-in mice (Lmna^G609G/G609G) 3 times per week for 2 weeks. Contralateral muscle served as control (DMSO). MG132 was dissolved in dimethyl sulfoxide (DMSO) and then diluted in 100 μl sterile phosphate-buffered saline (PBS) for intramuscular injection. […] Animal experiments have been carried out in compliance with the European guidelines for the care and use of laboratory animals (EU directive 2010/63/EU) and in accordance with the recommendations provided by the guide for the care and use of the laboratory animals of the French national Institute for Health and Medical Research (INSERM) and the ethical committee of Aix-Marseille University.

lamin A [2] = experiment: Intramuscular MG132 in Lmna G609G/G609G mice, lamin A in gastrocnemius muscle; type: in vivo, mouse
Description: (§2) (A) Lamin A, progerin, lamin C and SRSF-1 specific bands, corresponding to DMSO-treated left muscle (−) and 1 μg/Kg MG132-treated right muscle (+), were quantified by ImageJ software and their expression levels were normalized to GAPDH values.
as §1

lamin A [3] = experiment: Western blot of lamin A protein in HGPS fibroblasts; type: cell-based, human; settings: 48 h treatment with MG132 (10 μM)
Description: (§3) Total fibroblast proteins were extracted in 200 μL of NP40 Cell Lysis buffer (Invitrogen, Carlsbad, Calif.) containing Protease and Phosphatase Inhibitor Cocktail (Thermo Scientific). Alternatively, cells were lysed with urea (8 M urea, 5 mM dithiothreitol, 150 mM NaCl, 50 mM Tris-Cl pH 7.5, protease and phosphatase Inhibitor Cocktail (Thermo Scientific)). Cells were sonicated twice (30 sec each), incubated at 4° C. for 30 minutes and then centrifuged at 10,000 g for 10 minutes. Protein concentration was evaluated with the bicinchoninic acid technique (Pierce BCA Protein Assay Kit), absorbance at 562 nm is measured using nanodrop 1000 (Thermo Fisher Scientific Inc.) Equal amounts of proteins (40 μg) were loaded onto 10% Tis-Glycine gel (Criterion™ XT precast gel) using XT Tricine running Buffer (Biorad, USA). After electrophoresis, gels were electro transferred onto nitrocellulose membranes or Immobilon-FL polyvinylidene fluoride membranes (Millipore), blocked in Odyssey Blocking Buffer diluted 1:1 in PBS for 1 hour at room temperature, and incubated overnight at 4° C. or 2 hours at room temperature with various primary antibodies. […]

HGPS cell lines = experiment: Quantitation of abnormal nuclear morphology; type: cell-based, human; settings: 10 μM MG132, 48 h
Description: The percentage of normal nuclei (nuclei with a smooth oval shape) and abnormal nuclei (nuclei with blebs, irregular shape, or multiple folds) was calculated by manual blind counting. A representative image and the mean values of 3 different experiments are shown. *P<0.05.
Fibroblasts from three HGPS patients (AG01972, AG11498, 5968) and two normal individuals (8471, 8498) were cultured with DMEM medium containing 10 μM MG132, or the same volume of vehicle (DMSO, 0.025% v/v) for 48 h. Cells stained for lamin A/C or DAPI were examined by fluorescence microscopy with an Axioplan 2 imaging microscope (Carl Zeiss). For quantitation of abnormal nuclear morphology, the percentage of normal nuclei (nuclei with a smooth oval shape) and abnormal nuclei (nuclei with blebs, irregular shape, or multiple folds) was calculated by manual blind counting. At least 200 fibroblast nuclei were randomly selected for each cell line and examined in two independent experiments. Results are expressed graphically as the average percentage of the total nuclei counted.

progerin = experiment: Intramuscular MG132 in Lmna G609G/G609G mice, progerin in gastrocnemius muscle; type: in vivo, mouse
Description: as §2, §1

lamin C mRNA = experiment: qRT-PCR of lamin C transcripts in HGPS cells; type: cell-based, human; settings: 10 μM MG132 time-course
Description: Total RNA was isolated using the RNeasy plus extraction kit (Qiagen, Valencia, Calif.). 1 μg of RNA was reverse transcribed using the High Capacity cDNA Reverse Transcription Kit (Applied Biosystems). Real time PCR amplification was carried out with the TaqMan® Gene Expression Master Mix (Applied Biosystems) on a LightCycler 480 (Roche, Germany) using pre-designed primers for GAPDH (Hs00266705_g1), Progerin (F: […] (SEQ ID NO:3) R: […] (SEQ ID NO:4) and probe: […] (SEQ ID NO:5)), Lamin A (F: […] (SEQ ID NO:6) R: […] (SEQ ID NO:7) and probe: […] (SEQ ID NO:8)) and lamin C (F: […] (SEQ ID NO:9) R: […] (SEQ ID NO:10) and probe: […] (SEQ ID NO:11)) (Applied Biosystems) using the program: UNG incubation at 50° C. for 2 minutes, initial denaturation at 95° C. for 10 minutes, 40 cycles of amplification: denaturation at 95° C. for 15 seconds and annealing at 60° C. for 1 minute. All PCR reactions were performed in triplicate. Threshold cycle (Ct) values were used to calculate relative mRNA expression by the 2-ΔΔ^T relative quantification method with normalization to GAPDH expression.

lamin C = experiment: Western blot of lamin C protein in HGPS fibroblasts; type: cell-based, human; settings: 48 h treatment with MG132 (10 μM)
Description: as §3

LC3B-II = experiment: Western blot of LC3B-II (autophagy level) in HGPS fibroblasts; type: cell-based, human; settings: HGPS fibroblasts following MG132 treatment
Description: as §3

[4] = test system: Act88F-PABPN1-17ala-expressing flies; experiment: Wing posture defects in Drosophila OPMD model; type: in vivo; settings: oral in food, from larval stages, Day 3 to Day 11 of adulthood, vs DMSO alone
Description: Drug supplemented food was prepared as follows. Instant Drosophila medium (Carolina Biological Supply Company) was reconstituted in each vial with a solution of 1% yeast in water, supplemented with either increasing concentrations of drug solubilized in DMSO (dimethyl sulfoxide), or DMSO alone. MG132 was purchased from Santa Cruz Biotechnology (SC-201270). Each vial contained 5 ml or 2.5 ml of reconstituted medium, to raise larvae or adults, respectively. Individuals were fed with the drug from larval stages. 70 to 80 first instar larvae were transferred per vial and developed in the same vial up to adulthood; adults were transferred in a new vial with the same concentration of drug. […] Abnormal wing posture was quantified by collecting adult males at birth, pooling five males per vial and scoring abnormal wing position each day by direct observation of the flies through the vials, without anesthesia.
The inventors used the Drosophila model in which PABPN1-17ala is expressed constitutively in adult indirect flight muscles from the Act88F-PABPN1-17ala transgene (90), to assay the effect of MG132 in vivo. […] Wing posture defects were recorded from Day 3 to Day 11 of adulthood. The effect of MG132 was quantified by recording the number of Act88F-PABPN1-17ala-expressing flies with abnormal wing posture.

[5] = 10 μg/kg body weight intramuscular

CC(C)C[C@@H](C=O)NC(=O)[C@H](CC(C)C)NC(=O)[C@H](CC(C)C)NC(=O)OCc1ccccc1 [MG132, Z-Leu-Leu-Leu-al] (Cbz-Leu-Leu-Leu-aldehyde)
apparent damage or stress responses [1]: Neither vehicle alone nor MG132 treatment produced any apparent damage or stress responses
lamin A level in treated muscle (lamin A [2]; 1 μg/Kg intramuscular, change not significant): small increase in lamin A
lamin A level in treated muscle (lamin A [2]; [5]): remain constant or increase slightly
lamin A protein levels (lamin A [3]): increased
nuclear shape abnormalities (HGPS cell lines): improves nuclear shape abnormalities
progerin level in treated muscle (progerin; 1 μg/Kg intramuscular, 3 times per week for 2 weeks, vs contralateral muscle): significant decrease of progerin level
progerin level in treated muscle (progerin; [5]): significant decrease of progerin levels
lamin C transcript levels (lamin C mRNA): much less pronounced decrease of lamin C transcript levels
lamin C protein levels (lamin C): increased
LC3B-II levels (LC3B-II): increased
number of flies with abnormal wing posture [4]: significant decrease in the number of flies with abnormal wing posture
